Assay results taken from the NIST ThermoML archive (doi:10.1016/j.jct.2019.07.003).
Numbers after ± are expanded uncertainties.

Details: Crystal; DTA

A Normal melting temperature of 645 ± 1 °C was found for [Cl-].[Cs+] [cesium chloride] in this work.
A Normal melting temperature of 844 ± 1 °C was found for [F-].[Li+] [lithium fluoride] in this work.
